From PMC4764904 (Scientific Reports, 2016)
Read-outs that look alike come from different tables or passages of the source. Where a SMILES comes first, the peptide text is derived from it. Where no end group is shown, it is not given here. [ ]: non-standard residue; d: D form. Cit = NC(=O)NCCC[C@H](N)C(=O)O; pGlu = O=C1CC[C@@H](C(=O)O)N1

Key:
human GALR3 = biological target: T1, human GALR3 (Homo sapiens, UniProt O60755); assay: SRE-luc reporter assay, GALR3; type: cell-based;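 also: luciferase activity read in cell lysates across rising peptide concentrations, EC50 being the agonist concentration giving half-maximal stimulation from a sigmoidal nonlinear fit, Gαqi routing Gi-coupled receptor signaling through Gq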
T1 construct: host or cells: HEK293 cells stably expressing Gαqi
T1 sequence (O60755 1-368): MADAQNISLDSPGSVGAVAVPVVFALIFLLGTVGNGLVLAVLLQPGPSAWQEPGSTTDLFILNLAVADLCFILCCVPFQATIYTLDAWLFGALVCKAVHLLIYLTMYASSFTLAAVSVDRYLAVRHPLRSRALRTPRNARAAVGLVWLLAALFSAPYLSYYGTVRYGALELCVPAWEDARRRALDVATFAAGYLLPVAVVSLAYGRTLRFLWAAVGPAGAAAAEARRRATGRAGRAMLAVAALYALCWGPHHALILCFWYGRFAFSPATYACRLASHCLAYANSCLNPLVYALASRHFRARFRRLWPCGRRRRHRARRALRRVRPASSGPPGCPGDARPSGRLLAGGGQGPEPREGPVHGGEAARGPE

human GALR2 = biological target: T2, human GALR2 (Homo sapiens, UniProt O43603); assay: SRE-luc reporter assay, GALR2; type: cell-based;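 also: luciferase activity read in cell lysates after exposure to rising peptide concentrations, EC50 being the agonist level giving half-maximal stimulation from a sigmoidal nonlinear regression fit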
T2 construct: host or cells: HEK293 cells stably expressing Gαqi
T2 sequence (O43603 1-387): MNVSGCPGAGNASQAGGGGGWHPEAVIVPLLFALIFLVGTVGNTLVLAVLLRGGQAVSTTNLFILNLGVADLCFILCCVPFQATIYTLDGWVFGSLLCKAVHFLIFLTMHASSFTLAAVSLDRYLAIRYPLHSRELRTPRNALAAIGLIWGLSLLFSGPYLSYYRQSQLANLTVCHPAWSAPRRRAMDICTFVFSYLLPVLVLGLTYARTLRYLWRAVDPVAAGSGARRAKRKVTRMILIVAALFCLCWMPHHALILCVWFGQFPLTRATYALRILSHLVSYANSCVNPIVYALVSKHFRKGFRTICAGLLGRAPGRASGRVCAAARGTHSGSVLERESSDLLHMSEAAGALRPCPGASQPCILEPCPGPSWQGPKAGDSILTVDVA

[1] = HEK293-Gqi cells transfected with SRE-luc and human GALR3, 6 h ligand treatment, mean ± S.E. of at least three independent experiments, NM = not measurable, read-out: GALR3 EC50
[2] = HEK293-Gqi cells transfected with SRE-luc and human GALR2, 6 h ligand treatment, mean ± S.E. of at least three independent experiments, NM = not measurable, read-out: GALR2 EC50

| EC50 (human GALR3; [1]) [µM] | EC50 (human GALR2; [2]) [µM] | Compound | EC50 (human GALR3) [µM] | EC50 (human GALR2) [µM] |
| --- | --- | --- | --- | --- |
| 0.0933 ± 0.0209 | 0.0363 ± 0.00747 | GWTPQAMLYLKGAQ-NH2 [G1] |  |  |
| 0.105 ± 0.0176 | 0.0589 ± 0.00759 | NWTLQAMLYLKGAQ-NH2 [L4] |  |  |
| 0.501 ± 0.184 | 0.0617 ± 0.0127 | NWTPNAMLYLKGAQ-NH2 [N5] |  |  |
| 1.23 ± 0.108 | 1.02 ± 0.132 | NWTPQAMGYLKGAQ-NH2 [G8] |  |  |
| 0.38 ± 0.0491 | 0.0389 ± 0.0058 | NWTPQAMLYLKGPQ-NH2 [P13] |  |  |
| 0.331 ± 0.062 | 0.0363 ± 0.01 | NWTPQAMLYLLGAQ-NH2 [L11] |  |  |

The remaining lines, values behind:

| Compound | EC50 (human GALR3; [1]) [µM] | EC50 (human GALR2; [2]) [µM] | EC50 (human GALR3) [µM] | EC50 (human GALR2) [µM] |
| --- | --- | --- | --- | --- |
| CSCC[C@H](NC(=O)[C@H](C)NC(=O)[C@H](CCC(N)=O)NC(=O)[C@@H]1CCCN1C(=O)[C@@H](NC(=O)[C@H](Cc1c[nH]c2ccccc12)NC(=O)[C@@H](N)CCCNC(N)=O)[C@@H](C)O)C(=O)N[C@@H](CC(C)C)C(=O)N[C@@H](Cc1ccc(O)cc1)C(=O)N[C@@H](CC(C)C)C(=O)N[C@@H](CCCCN)C(=O)NCC(=O)N[C@@H](C)C(=O)N[C@@H](CCC(N)=O)C(N)=O [Cit1] (H-[Cit]WTPQAMLYLKGAQ-NH2) | 0.251 ± 0.065 | 0.0617 ± 0.019 |  |  |
| CSCC[C@H](NC(=O)[C@@H](C)NC(=O)[C@H](CCC(N)=O)NC(=O)[C@@H]1CCCN1C(=O)[C@@H](NC(=O)[C@H](Cc1c[nH]c2ccccc12)NC(=O)[C@@H](N)CC(N)=O)[C@@H](C)O)C(=O)N[C@@H](CC(C)C)C(=O)N[C@@H](Cc1ccc(O)cc1)C(=O)N[C@@H](CC(C)C)C(=O)N[C@@H](CCCCN)C(=O)NCC(=O)N[C@@H](C)C(=O)N[C@@H](CCC(N)=O)C(N)=O [dA6] | 0.316 ± 0.0471 | 0.209 ± 0.027 |  |  |
| CSCC[C@H](NC(=O)[C@H](C)NC(=O)[C@H](CCC(N)=O)NC(=O)[C@@H]1CCCN1C(=O)[C@@H](NC(=O)[C@H](Cc1c[nH]c2ccccc12)NC(=O)[C@@H](N)CC(N)=O)[C@@H](C)O)C(=O)N[C@@H](CC(C)C)C(=O)N[C@@H](Cc1ccc(O)cc1)C(=O)N[C@@H](CC(C)C)C(=O)N[C@@H](CCCCN)C(=O)N[C@H](C)C(=O)N[C@@H](C)C(=O)N[C@@H](CCC(N)=O)C(N)=O [dA12] (H-NWTPQAMLYLK[dA]AQ-NH2) | 1.41 ± 0.21 | 1.23 ± 0.159 |  |  |
| CSCC[C@H](NC(=O)[C@H](C)NC(=O)[C@H](CCC(N)=O)NC(=O)[C@@H]1CCCN1C(=O)[C@@H](NC(=O)[C@H](Cc1c[nH]c2ccccc12)NC(=O)[C@@H](N)CC(N)=O)[C@@H](C)O)C(=O)N[C@@H](CC(C)C)C(=O)N[C@@H](Cc1ccc(O)cc1)C(=O)N[C@H](CC(C)C)C(=O)N[C@@H](CCCCN)C(=O)NCC(=O)N[C@@H](C)C(=O)N[C@@H](CCC(N)=O)C(N)=O [dL10] | > 10 | > 10 |  |  |
| CSCC[C@H](NC(=O)[C@H](C)NC(=O)[C@H](CCC(N)=O)NC(=O)[C@@H]1CCCN1C(=O)[C@H](NC(=O)[C@H](Cc1c[nH]c2ccccc12)NC(=O)[C@@H](N)CC(N)=O)[C@H](C)O)C(=O)N[C@@H](CC(C)C)C(=O)N[C@@H](Cc1ccc(O)cc1)C(=O)N[C@@H](CC(C)C)C(=O)N[C@@H](CCCCN)C(=O)NCC(=O)N[C@@H](C)C(=O)N[C@@H](CCC(N)=O)C(N)=O [dT3] | > 10 | > 10 |  |  |
| CSCC[C@H](NC(=O)[C@H](C)NC(=O)[C@H](CCC(N)=O)NC(=O)[C@@H]1CCCN1C(=O)[C@@H](NC(=O)[C@H](Cc1c[nH]c2ccccc12)NC(=O)[C@@H](N)CC(N)=O)[C@@H](C)O)C(=O)N[C@@H](CC(C)C)C(=O)N[C@H](Cc1ccc(O)cc1)C(=O)N[C@@H](CC(C)C)C(=O)N[C@@H](CCCCN)C(=O)NCC(=O)N[C@@H](C)C(=O)N[C@@H](CCC(N)=O)C(N)=O [dY9] | > 10 | > 10 |  |  |
| CSCC[C@H](NC(=O)[C@H](C)NC(=O)[C@H](CCC(N)=O)NC(=O)[C@@H]1CCCN1C(=O)[C@@H](NC(=O)[C@H](Cc1c[nH]c2ccccc12)NC(=O)[C@@H]1CCC(=O)N1)[C@@H](C)O)C(=O)N[C@@H](CC(C)C)C(=O)N[C@@H](Cc1ccc(O)cc1)C(=O)N[C@@H](CC(C)C)C(=O)N[C@@H](CCCCN)C(=O)NCC(=O)N[C@@H](C)C(=O)N[C@@H](CCC(N)=O)C(N)=O [pQ1] ([pGlu]WTPQAMLYLKGAQ-NH2) | 0.0617 ± 0.0104 | 0.035 ± 0.00782 |  |  |
| NWTPNAALYLFGAH-NH2 [N5A7F11H14] | 3.02 ± 0.978 | 0.0545 ± 0.0108 |  |  |
| NWTPNAALYLFGAQ-NH2 [N5A7F11] | > 10 | 0.107 ± 0.0201 |  |  |
| NWTPQAALYLFGAQ-NH2 [A7F11] | > 10 | 0.145 ± 0.027 |  |  |
| NWTPQAALYLKGAQ-NH2 [A7] | 0.468 ± 0.0696 | 0.0389 ± 0.00728 |  |  |
| NWTPQAMLYLFGAQ-NH2 [F11] |  |  | 0.708 ± 0.119 | 0.049 ± 0.0101 |
| NWTPQAMLYLKGAH-NH2 [Ha14] | 0.0708 ± 0.0105 | 0.0537 ± 0.00692 |  |  |
